# Assay results taken from ChEMBL document CHEMBL3044822, “Carpropamid, a New Fungicide for Rice Blast Control” (1998).
# How the values were obtained:
# Pyricularia oryzae [1] = assay: Fungicidal activity against Magnaporthe oryzae in 7 days old young rice seedlings compound sprayed 1 day after inoculation assessed as efficacy against blast disease measured as lesion level at 200 ppm measured after 7 days of inoculation; format: functional
# Pyricularia oryzae [2] = assay: Fungicidal activity against Magnaporthe oryzae in 7 days old young rice seedlings compound sprayed 1 day after inoculation assessed as efficacy against blast disease measured as lesion level at 50 ppm measured after 7 days of inoculation; format: functional
SMILES,Efficacy (Pyricularia oryzae [1]) [%],Efficacy (Pyricularia oryzae [2]) [%]
CC(NC(=O)C1(C(C)C)CC1(Cl)Cl)c1ccc(Cl)cc1 (stereo not drawn),0,
CC1(C)C(C(=O)O)C1(Cl)Cl (stereo not drawn),<5,
CCOC(=O)C1C(C)(C)C1(Cl)Cl (stereo not drawn),<5,
CC1(C)C(C(=O)Oc2ccccc2)C1(Cl)Cl (stereo not drawn),<20,
CC1(C)C(Cl)(Cl)C1(C)C(=O)O (stereo not drawn),<20,
CCC1(CC)C(C(=O)O)C1(Cl)Cl (stereo not drawn),<30,
CC1(C)C(C#N)C1(Cl)Cl (stereo not drawn),<30,
CC1(C)C(CO)C1(Cl)Cl (stereo not drawn),<5,
CC1(C)C(COC(=O)c2ccccc2)C1(Cl)Cl (stereo not drawn),<5,
CC1(C)C(COC(=O)Nc2ccccc2)C1(Cl)Cl (stereo not drawn),<5,
CC1(C)C(C(N)=O)C1(Cl)Cl (stereo not drawn),<20,
CNC(=O)C1C(C)(C)C1(Cl)Cl (stereo not drawn),<40,
CC1(C)C(C(=O)Nc2ccccc2)C1(Cl)Cl (stereo not drawn),>40,
CC(NC(=O)C1(C)C(C)(C)C1(Cl)Cl)c1ccccc1 (stereo not drawn),<5,
CC(NC(=O)C1(C)C(C)(C)C1(Cl)Cl)c1ccc(Cl)cc1 (stereo not drawn),0,
CC(NC(=O)C1(C)C(C)(C)C1(Cl)Cl)c1ccc(Br)cc1 (stereo not drawn),0,0
CC[C@]1(C(=O)NC(C)c2ccc(Cl)cc2)[C@H](C)C1(Cl)Cl (mixture of isomers) [CARPROPAMID],,0
C[C@@H](NC(=O)C1(C)C(C)(C)C1(Cl)Cl)c1ccc(Br)cc1 (stereo in doubt; 17(Rd)),,0
C[C@@H](NC(=O)C1(C)C(C)(C)C1(Cl)Cl)c1ccc(Br)cc1 (stereo in doubt; 17(Rl)),,<5
C[C@H](NC(=O)C1(C)C(C)(C)C1(Cl)Cl)c1ccc(Br)cc1 (stereo in doubt; 17(Sl)),,<20
CC[C@]1(C(=O)NC(C)c2ccc(Cl)cc2)[C@H](C)C1(Cl)Cl (stereo partly drawn) [CARPROPAMID],0,
CC[C@]1(C(=O)N[C@H](C)c2ccc(Cl)cc2)[C@H](C)C1(Cl)Cl [trans-Carpropamid],,0
